According to patent US20230167170A1, “COMPOSITIONS COMPRISING ANTI-VEGF AND NANOPARTICLES AND METHODS OF USING THE SAME FOR THE TREATMENT OF ABNORMAL OR EXCESSIVE ANGIOGENESIS” (Cellviva, LLC, priority 2020, published 2023):

System: pyogenic granuloma lesion
Assay: Treatment of pyogenic granuloma after pterygiectomy and amniotic membrane graft with bevacizumab combination therapy (patient cases)
Assay type: in vivo, human
Description: A topical anesthetic (proparacaine 0.5% eye drops or Alcaine manufactured by Alcon Laboratories, Inc.) was applied to the eye following recent pterygiectomy and amniotic membrane graft surgery. The patients were examined to identify any abnormal grown on the eye. […] A syringe containing approximately 0.05 mL of bevacizumab ([…]) was injected into the eye and the plunger was drawn back to determine if blood was present in the syringe hub. […] Bevacizumab was then injected into the pyogenic granuloma lesion and/or in areas adjacent to the lesion where blood vessels were dilated and numerous. If bleeding occurred (e.g., in the form of subconjunctival or subcutaneous hematoma), tamponade with Q-tips was performed until bleeding stopped; then injection was resumed. The anti-inflammatory steroid drug and/or NSAID were administered either before or after the bevacizumab injection. The anti-inflammatory steroid drug and/or NSAID were administered by injection and/or via eye drops. If the anti-inflammatory steroid drug and/or NSAID was administered by injection, it was done following a similar process as described above for the bevacizumab injection. A syringe containing approximately 0.03 mL triamcinolone injection (40 mg/mL) was injected into the pyogenic granuloma lesion and the plunger was drawn back to determine if blood was present in the syringe hub. […] The anti-inflammatory steroid drug or NSAID was injected into the pyogenic granuloma lesion and/or in areas adjacent to the lesion where blood vessels were dilated and numerous. If bleeding occurred (e.g., in the form of subconjunctival or subcutaneous hematoma), tamponade with Q-tips was performed until bleeding stopped; then injection was resumed. If the anti-inflammatory steroid drug or NSAID was delivered by eyedrops, the steroid eye drops were given for approximately 6 weeks 1 to 4 times a day (every 6 hours) or once every hour (24 drops/day). NSAID eye drops were given 4 times a day every 6 hours for 3 to 6 months. Patients were followed up with to monitor for appearance of new pyogenic granuloma. The presence of new pyogenic granuloma was an indication for further treatment (e.g. with injection and/or eye drops). In some cases, during the first surgery to remove pterygium, the pterygium was only partially removed to prevent necrosis). Thus, in some patients, additional surgeries were subsequently performed to remove remaining sections of the pterygium, resulting in additional pyogenic granuloma. Two patients (Patients 1 and 2) underwent surgery to remove primary pterygium (pterygiectomy) from the cornea of one or both eyes followed by amniotic membrane graft surgery and were treated as described below.

[1] = Patient 2, left eye, 1-month follow-up visit, triamcinolone day 98, bevacizumab day 100

## bevacizumab
Patient 1, right eye, 30 days after day 104, triamcinolone day 90, bevacizumab day 97
  resolution of pyogenic granuloma: completely resolved
Patient 1, right eye, day 104 after surgery, triamcinolone 0.03 mL (40 mg/mL) day 90, then bevacizumab 0.05 mL (1.25 mg/mL) day 97, both into the lesion
  pyogenic granuloma size: considerably smaller in circumference
Patient 1, right eye, day 104 after surgery, triamcinolone day 90, bevacizumab day 97
  hyperemia of pyogenic granuloma: no evidence of hyperemia
Patient 1, combination therapy of bevacizumab and an anti-inflammatory steroid (injected)
  pyogenic granuloma lesions, stated conclusion: inhibited
[1]
  recurrence of pyogenic granuloma: no evidence of recurrence
  resolution of pyogenic granuloma: completely resolved
Patient 2, left eye, within two weeks of bevacizumab injection, triamcinolone 0.03 mL (40 mg/mL) day 98, bevacizumab 0.05 mL (1.25 mg/mL) day 100
  pyogenic granuloma size: significantly smaller
Patient 2, left eye, within two weeks of bevacizumab injection, triamcinolone day 98, bevacizumab day 100
  erythema of pyogenic granuloma: less erythematous
Patient 2, combination therapy of bevacizumab and an anti-inflammatory steroid (injected or topical)
  pyogenic granuloma lesions, stated conclusion: inhibited
Patient 3, right eye, day 86, triamcinolone 0.03 mL (40 mg/mL) day 60, bevacizumab 0.05 mL (1.25 mg/mL) day 68, FIG. 4
  resolution of pyogenic granuloma: completely resolved
Patient 3, combination therapy of bevacizumab, an anti-inflammatory steroid (injected or topical) and a topical NSAID
  pyogenic granuloma, stated conclusion: eliminated
Patient 3, combination therapy of bevacizumab, anti-inflammatory steroid and topical NSAID
  combination therapy compared with bevacizumab alone: superior to treatment with bevacizumab alone
Patient's eye 18 days after injection of both Kenalog and bevacizumab, FIG. 4
  pyogenic granuloma lesion after steroid and anti-VEGF injection: significant reduction in the pyogenic granuloma lesion
